Laboratory results as given in PMC8958504 (Journal of Medicinal Chemistry, 2022).
Several values for one entry are separate records, joined by “and”; a condition that tells them apart may be missing. Identical values can stand only once.

What was measured:
[1] = target: T1, hMAO-A (Homo sapiens, UniProt P21397); experiment: biochemical; conditions: for IC50: read-out: hMAO-A (IC50), recombinant hMAO-A, p-tyramine substrate
T1 sequence (P21397 1-527): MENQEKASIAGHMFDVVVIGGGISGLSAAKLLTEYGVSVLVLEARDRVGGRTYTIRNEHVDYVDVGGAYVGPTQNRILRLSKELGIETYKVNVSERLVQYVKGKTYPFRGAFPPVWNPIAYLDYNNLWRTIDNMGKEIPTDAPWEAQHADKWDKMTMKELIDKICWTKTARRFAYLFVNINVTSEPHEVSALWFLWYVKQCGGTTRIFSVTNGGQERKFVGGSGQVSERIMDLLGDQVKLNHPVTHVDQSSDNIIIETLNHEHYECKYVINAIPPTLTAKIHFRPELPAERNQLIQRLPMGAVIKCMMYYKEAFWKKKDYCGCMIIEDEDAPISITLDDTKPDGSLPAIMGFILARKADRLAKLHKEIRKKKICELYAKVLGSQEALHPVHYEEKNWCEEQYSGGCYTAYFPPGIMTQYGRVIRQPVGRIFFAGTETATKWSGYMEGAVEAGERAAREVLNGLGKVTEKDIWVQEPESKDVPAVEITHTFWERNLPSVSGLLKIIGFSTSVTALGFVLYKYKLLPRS
Description: (§1) The hMAO-A/B inhibition of all compounds was determined using the Amplex Red MAO assay kit.
(§2) Assays were performed following the general procedure previously described.[98] […] The specific fluorescence emission was calculated after subtracting the background activity, which was determined from wells containing all components except the hMAO isoforms, which were replaced with PBS.

[2] = target: T2, hMAO-B (Homo sapiens, UniProt P27338); experiment: biochemical; conditions: for IC50: read-out: hMAO-B (IC50), recombinant hMAO-B, p-tyramine substrate; for inhibition at 50 µM: read-out: hMAO-B percentage of inhibition (in brackets)
T2 sequence (P27338 1-520): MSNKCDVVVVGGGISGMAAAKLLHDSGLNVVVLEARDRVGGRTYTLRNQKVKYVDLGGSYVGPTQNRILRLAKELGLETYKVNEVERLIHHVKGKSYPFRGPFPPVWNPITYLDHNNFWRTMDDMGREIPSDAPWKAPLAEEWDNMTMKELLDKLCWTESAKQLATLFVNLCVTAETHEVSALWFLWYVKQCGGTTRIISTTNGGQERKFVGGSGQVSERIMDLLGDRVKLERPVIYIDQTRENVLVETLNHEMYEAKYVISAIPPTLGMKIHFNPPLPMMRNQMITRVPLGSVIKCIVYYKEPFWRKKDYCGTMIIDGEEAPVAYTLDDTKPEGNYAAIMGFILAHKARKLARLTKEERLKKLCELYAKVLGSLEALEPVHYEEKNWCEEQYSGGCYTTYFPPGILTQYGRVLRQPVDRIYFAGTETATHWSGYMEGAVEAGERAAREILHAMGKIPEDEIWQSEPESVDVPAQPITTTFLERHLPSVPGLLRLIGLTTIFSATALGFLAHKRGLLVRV
Description: as §1, §2

[3] = tested on: NRF2-ARE signaling pathway; experiment: cells; type: cell-based; conditions: for NRF2 (CD, μM): concentration required to double luciferase activity, AREc32 cells, 24 h; for EC (2-fold induction): Arec32, 24 h, read-out: NRF2 (CD, μM), concentration required to double luciferase activity, AREc32 cells, 24 h
Description: AREc32 cells were plated in 96-well white plates (2 × 10^4 cells/well). […]. The AREc32 cells constitutively express the plasmid pGL-8xARE that implements eight copies of the EpRE sequences, followed by the luciferase reporter gene. Therefore, NRF2 induction is related to the activation of EpRE sequences, expressing luciferase at the same extent as EpRE sequences are activated. The Luciferase Assay System (Promega E1500) was used according to the provider’s protocol, and luminescence was quantified in an Orion II microplate luminometer (Berthold, Germany). Fold induction of luciferase activity was normalized to basal conditions. Data are expressed as CD values, expressing the concentration required to double the luciferase activity. CD values were calculated from dose–response curves generated from the fold induction of control conditions versus inducer concentration and fitted by nonlinear regression and data interpolated to twofold induction concentration.[68]

[4] = Oxygen radical absorbance capacity (ORAC-FL) assay; conditions: trolox = 1.0
Description: 2,2′-Azobis-(amidinopropane) dihydrochloride (AAPH), trolox, and fluorescein (FL) were purchased from Sigma-Aldrich. The reaction was carried out in a 75 mM phosphate buffer (pH 7.4), and the final reaction mixture was 200 μL. […] Antioxidant curves (fluorescence vs time) were first normalized to the curve of the blank corresponding to the same assay, and the area under the curve (AUC) of fluorescence decay was calculated. The net AUC corresponding to a sample was calculated by subtracting the AUC corresponding to the blank. Regression equations between the net AUC and antioxidant concentration were calculated for all the samples.

[5] = target: T3, QR2 (Mesocricetus auratus, UniProt A0ABM2YAB8); experiment: biochemical; conditions: for inhibition at 10 µM: read-out: QR2 percentage of inhibition (in brackets)
T3 sequence (A0ABM2YAB8 1-231): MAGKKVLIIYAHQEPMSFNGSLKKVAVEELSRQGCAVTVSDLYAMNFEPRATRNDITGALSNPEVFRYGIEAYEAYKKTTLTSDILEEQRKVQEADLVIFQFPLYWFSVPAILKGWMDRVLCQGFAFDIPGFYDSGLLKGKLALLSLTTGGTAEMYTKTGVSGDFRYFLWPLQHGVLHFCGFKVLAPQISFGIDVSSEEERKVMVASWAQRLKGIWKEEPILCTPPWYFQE
Description: The QR2 experiments were performed in membrane homogenates of hamster brains (https://www.eurofins.fr, catalog ref. 0088). […] First, radioligand displacement was measured at a fixed compound concentration (10 μM) in each receptor.

[6] = in vitro; type: in vitro ADME; conditions: for Papp at 240 min, 100 μg mL^–1: PAMPA, pH 7.4, class from PAMPA-BBB Pe, read-out: CNS-permeability prediction; for PAMPA-BBB (Pe, 10^–6 cm s^–1): porcine brain lipid, PBS/EtOH (70:30), 240 min, 25 °C
[7] = tested on: adult mice NSCs; experiment: Neurogenic studies in SGZ-derived neurospheres; type: cell-based, mouse; conditions: 10 μM
Description: Adult mice NSCs were isolated from SGZ of the dentate gyrus of the hippocampus and grown as free-floating neurospheres (NS).[72],[78] The neurogenic potential of each compound was determined using fluorescence confocal microscopy by quantifying the expression of two well-known neuronal markers: human β-III-tubulin (TuJ-1 clone) and microtubule-associated protein 2 (MAP-2). TuJ-1 is expressed in immature neurons, whereas the expression of MAP-2 indicates a consolidated mature neuronal stage.[79] Given that neurogenesis involves not only the proliferation of NSC but also the migration of newly generated cells, the greatest migration distance promoted by each compound was also measured (Figure 8).
Adult male C57BL/6 mice (3 months old) were used in order to determine neurogenesis activity. […] DAPI staining was used as a nuclear marker. Fluorescent representative images were acquired with a Nikon fluorescence microscope 90i coupled to a digital camera Qi. The microscope configuration was adjusted to produce the optimum signal-to-noise ratio. […] Quantification was undertaken using the image analySIS software (Soft Imaging System Corp., Münster, Germany) and normalized to total nuclei (DAPI-stained). The intensity of immunostaining of neurites from TuJ1-labeled cells and the number of MAP-2-positive cells were estimated from nine neurospheres per condition over three independent experiments. The outgrowth of the neurosphere cells was examined under a phase-contrast microscope and the farthest distance of cell migration was calculated from the edge of the sphere. At least 10 plated neurospheres per treatment were analyzed.

[8] = tested on: rat primary cortical neurons; experiment: Neuroprotection against OA-induced toxicity in rat primary cortical neuronal cultures (MTT); conditions: for neuroprotection against OA-induced toxicity: compound 1 μM, OA 10 nM
[9] = Experimental pKa; type: physicochemical
Description: Introduction of the propargyl group in derivatives 2 was achieved by alkylation of the NH group of the oxadiazolone ring with propargyl bromide in basic media (K2CO3) and acetone. […] However, alkylation of the 3-hydroxylated derivative 3l was carried out overnight at room temperature (rt) in order to avoid possible secondary reactions through the phenolic group (experimental pKa for NH-oxadiazolone, 7.04 ± 0.02; for phenol 8.72 ± 0.02, Supporting Information 1, Table S1 and Figure S11).

Structure (SMILES)	IC50 [1]	IC50 [2]	NRF2 (CD, μM) [3]	ORAC (trolox equiv) [4]	IC50 [5]	Papp at 240 min, 100 μg mL^–1 [6]	PAMPA-BBB (Pe, 10^–6 cm s^–1) [6]	TuJ-1 and MAP-2 marked cells [7]	cell migration distance [7]	viability at 1 µM ([8]; Rattus norvegicus, Primary cortical neuron, read-out: cell viability)	neuroprotection against OA-induced toxicity [8]	inhibition at 50 µM ([1]; read-out: hMAO-A percentage of inhibition (in brackets))	inhibition at 50 µM [2]	EC (2-fold induction) [3]	inhibition at 10 µM [5]	pKa ([9]; experimental pKa for NH-oxadiazolone)	pKa ([9]; experimental pKa for phenol)
C#CCn1nc(/C=C/c2cccc(OC)c2)oc1=O [4d, 5-[(E)-2-(3-Methoxyphenyl)ethenyl]-3-(prop-2-yn-1-yl)-1,3,4-oxadiazol-2(3H)-one]	> 50 µM	0.64 ± 0.06 µM	7.44 ± 0.34 µM	0.3 ± 0.06 trolox equiv	0.4 ± 0.03 µM	> 4 ×10⁻⁶ cm/s	7.5 ± 0.3 10^–6 cm s^–1	clearly increased	extended	86%	slightly higher neuroprotection profile than resveratrol						
COc1cccc(/C=C/c2n[nH]c(=O)o2)c1 [2d, 5-[(E)-2-(3-Methoxyphenyl)ethenyl]-1,3,4-oxadiazol-2(3H)-one]	> 50 µM	> 50 µM		<0.1 trolox equiv	~10 µM	> 4 ×10⁻⁶ cm/s	4.6 ± 0.2 10^–6 cm s^–1	clearly increased	extended			24%	33%	> 60 µM	76%		
O=c1[nH]nc(/C=C/c2cccc(O)c2)o1 [3l, 5-[(E)-2-(3-Hydroxyphenyl)ethenyl]-1,3,4-oxadiazol-2(3H)-one]	> 50 µM	> 50 µM		3.8 ± 0.1 trolox equiv		< 2 ×10⁻⁶ cm/s	≤ 0.5 10^–6 cm s^–1	clearly increased	extended					> 60 µM		7.04 ± 0.02	8.72 ± 0.02
O=c1[nH]nc(/C=C/c2ccc(O)cc2)o1 [3m, 5-[(E)-2-(4-Hydroxyphenyl)ethenyl]-1,3,4-oxadiazol-2(3H)-one]	41.5 ± 3.4 µM	35.7 ± 3 µM		3.2 ± 0.1 trolox equiv		< 2 ×10⁻⁶ cm/s	≤ 0.7 10^–6 cm s^–1				not able to significantly reduce neuronal death						
O=c1[nH]nc(/C=C/c2cccc([N+](=O)[O-])c2)o1 [2c, 5-[(E)-2-(3-Nitrophenyl)ethenyl]-1,3,4-oxadiazol-2(3H)-one]	> 50 µM	1.06 ± 0.22 µM	8.42 ± 0.82 µM	<0.1 trolox equiv	~10 µM	> 4 ×10⁻⁶ cm/s	4.7 ± 0.2 10^–6 cm s^–1	clearly increased	extended						56%		
C#CCNC(=O)/C=C/c1ccc(O)c(O)c1 [6o, (2E)-3-(3,4-Dihydroxyphenyl)-N-(prop-2-yn-1-yl)prop-2-enamide]	47 ± 0.9 µM	> 50 µM	19.2 ± 3.7 µM	1.9 ± 0.1 trolox equiv		< 2 ×10⁻⁶ cm/s	≤ 0.4 10^–6 cm s^–1				slightly higher neuroprotection profile than resveratrol		48%				
C#CCNC/C=C/c1ccc(O)c(OC)c1 [8n, 2-Methoxy-4-{(1E)-3-[(prop-2-yn-1-yl)amino]prop-1-en-1-yl}phenol]	30.3 ± 2.5 µM	> 50 µM	22.3 ± 2.9 µM	2.1 ± 0.2 trolox equiv	0.2 ± 0.04 µM	> 4 ×10⁻⁶ cm/s	8.7 10^–6 cm s^–1 and 8.7 ± 0.6 10^–6 cm s^–1						45%				
COc1ccc(/C=C/c2n[nH]c(=O)o2)cc1 [2e, 5-[(E)-2-(4-Methoxyphenyl)ethenyl]-1,3,4-oxadiazol-2(3H)-one]	> 50 µM	> 50 µM		<0.1 trolox equiv	~10 µM	> 4 ×10⁻⁶ cm/s	6.5 ± 0.5 10^–6 cm s^–1						42%	> 60 µM	68%		
